Laboratory results as given in patent publication US6486198B1, “Compounds and methods for the treatment of post traumatic stress disorder” (priority 1999, dated 2002).

Columns and labels:
[1] = tested on: patients meeting DSM-IV criteria for chronic PTSD; assay: Discontinuation, side effects and tolerability in the PTSD patient study; type: in vivo, human
Description: Thirty five (35) patients meeting DSM-IV criteria for chronic post-traumatic stress disorder (PTSD) were selected for a study of the effects of topiramate administration. Of these, […] had non-hallucinatory PTSD and 6 hallucinatory PTSD. The group with hallucinatory PTSD experienced auditory and/or visual hallucinations containing content specifically associated with identified traumatic events. Whether these were PTSD “flashbacks” or psychotic experiences were at times difficult to ascertain due to fluctuations in reality testing the hallucinations. For this reason, prior to being screened for PTSD, some patients had received psychiatric diagnoses of psychotic disorders despite meeting full diagnostic criteria for PTSD.
Topiramate was added naturalistically to existing pharmacotherapy (see Table 1 for concomitant medications at start of trial), starting at 25 mglday and increasing whenever possible by 25 to 50 mg/day every 3 to 4 days to clinical response. Target symptoms were DSM-IV PTSD criterion B symptoms of nightmares (N =24) and intrusions (intrusive recollections/flashbacks, N=35) involving re-experiencing of traumas. Definitions of improvement, as assessed from patient self-report, included “partial response” as “definite reduction in intensity and frequency of nightmares or intrusions”, and “full response” as “complete cessation of nightmares and intrusions for a sustained period”. Following the seminal observations, in order to systematically identify responsive symptoms, the next 17 patients completed a self-report scale, the PTSD Checklist—Civilian Version (PCL-C)15, at baseline and at 4 weeks after starting topiramate. The patients were instructed to complete the PCL-C for experiences corresponding to traumas consistent with DSM-IV criterion A for PTSD. Paired ttest scores for the PCL-C were calculated with Jandel SigmaStat® v. 2.0.
Thirteen patients eventually discontinued treatment: 9 due to side effects (urticaria [N=1], eating cessation [N=2], ocular and limb paresthesias [N=1], severe headaches [N=1], overstimulation/panic [N=2], emergent suicidal ideation [N=1], and memory concerns [N=1]) and 4 for other reasons (patient choice [N=1], lack of relapse upon medication interruption [N=2], lack of efficacy [N=1]). Five of the discontinuers had experienced full symptom remission prior to discontinuation and 3 additional patients reported partial response.
Discontinuation due to medication-associated side effects, such as nausea and memory concerns, may have been due to the presence of other medications, to medication interactions, or to individual variation in time needed to accommodate to initial side effects. Subsequent to discontinuation of topiramate, the patient who experienced urticaria continued to complain of unrelated episodes of urticaria. […] When they occurred, side effects were easily managed by dosage reduction or a brief hiatus in administration.

[2] = tested on: seizures in rodent models of epilepsy; conditions: several rodent models; cited from earlier work

In the case of `CC1(C)O[C@@H]2[C@@H](CO[C@@]3(COS(N)(=O)=O)OC(C)(C)O[C@@H]23)O1` [Topiramate, 2,3:4,5-bis-O-(1-methylethylidene)-β-D-fructopyranose sulfamate], the “Safety in the study” value ([1]; PTSD patients) is reported as “posed no safety issues”, the Tolerability ([1]; PTSD population) is reported as “appeared well tolerated” and the “Patients discontinued due to side effects” value ([1]; of 35 patients) is reported as 9. The “Patients who eventually discontinued treatment” value ([1]; of 35 patients) was “Thirteen”, the “Additional discontinuers reporting partial response” value ([1]; of thirteen discontinuers) was 3 patients and the “Discontinuers with full symptom remission prior to discontinuation” value ([1]; of thirteen discontinuers) was “Five”. The “Seizure block in rodent models of epilepsy” value [2] was “effectively block seizures”.
